# Source: patent US7399731B2, “Electrically conductive non-aqueous wellbore fluid” (M-I L.L.C., priority 2001, dated 2008)
# Assay: Electrical conductivity of solutions of the organic salts in non-aqueous solvents
# Format: physicochemical
# Description: A variety of metal carboxylates were prepared in heptane by reacting versatic acid and 2-ethyl hexanoic acid directly with the metal of choice or with a metal base such as the hydride or hydroxide. Lithium, sodium, potassium, rubidium, calcium and gadolinium systems were synthesised.
# A 1 molar solution of potassium bis(2-ethylhexyl) phosphate in Brij 30 was then prepared by dissolving 18.02 grams of the salt in 47.5 grams (50 ml) of the solubilising agent.
# A 1 molar solution of AOT (Aldrich Chemicals) in Brij 30 was prepared by dissolving 22.23 grams of AOT in 47.5 grams (50 ml) of Brij 30.
# The final AOT/neopentyl glycol/Brij 30 solution of FIG. 10 (i.e. 1 molar AOT and 2 molar neopentyl glycol in Brij 30) was then diluted with successive amounts of mineral spirits and the conductivity measured at each addition.
# [1] = 1 molar salt and 2 molar neopentyl glycol in Brij 30, diluted: 20% solution, 80% mineral spirits by volume
"conductivity (1 molar in Brij 30 with 2.0 molar neopentyl glycol, 25° C.)",Compound,conductivity [1],conductivity (1 molar solution in Brij 30)
33.5 ìS/cm,"CCCCC(CC)COC(=O)CC(C(=O)OCC(CC)CCCC)S(=O)(=O)O.[Na] (centres unmarked) [AOT, sodium salt of bis(2-ethylhexyl) sulfosuccinate]",1.5 ìS/cm,15.7 ìS/cm
–,CCCCC(CC)COP(=O)([O-])OCC(CC)CCCC.[K+] (centres unmarked) [potassium bis(2-ethylhexyl) phosphate],3.2 ìS/cm,45.5 ìS/cm
